Data reported in patent US7628984B2, “Micronutrient formulations for pulmonary and heart health” (Premier Micronutrient Corporation, priority 2005, dated 2009).
Like-named read-outs stand apart in the source and are kept apart here.

What was measured:
connexin gene = details: mammalian cells in culture; cited from earlier work
[1] = cited from earlier work
[2] = tested on: patients with idiopathic dilated cardiomyopathy; details: Co-enzyme Q10 33.3 mg thrice/day, 126 patients, 6 y; cited from earlier work
[3] = tested on: intracellular levels of glutathione; details: cited from earlier work
[4] = tested on: patients undergoing angioplasty; details: 317 patients, 4 weeks before and 6 months after angioplasty, vs placebo, cited from earlier work
[5] = tested on: healthy male subjects receiving methionine; details: Vit. C 2 g, methionine 100 mg/kg, 6 hours; cited from earlier work
[6] = tested on: diabetes type 2 patients with or without macrovascular complications; details: 1200 IU/day, 75 patients, 5 months; cited from earlier work
[7] = tested on: patients with chronic renal failure; details: 800 IU, 33 patients, 12 weeks, cited from earlier work
[8] = tested on: patients with angiographically proven coronary atherosclerosis; details: cited from earlier work
[9] = tested on: smokers with hypercholesterolemia; details: 544 IU, 42 patients, 4 months; cited from earlier work
[10] = oral supplementation, human subjects; cited from earlier work
adenylate cyclase = details: cited from earlier work
[11] = Oral ingestion of α-TS, plasma levels; format: in vivo; details: 800 IU/day, humans
Text: Also, the oxidative DNA damage produced by oxidized vitamin C could be ameliorated by vitamin E. The form and type of vitamin E used are also important in any clinical trial. […] Selenium is a co-factor of glutathione perodidase, and Se-glutathione peroxidase also acts as an antioxidant. Therefore, selenium supplementation together with other antioxidants is also essential.

[12] = tested on: patients with high risk for cardiac events; details: Vitamin E 400 IU, 9,541 patients, follow-up 4.5 y, vs control, cited from earlier work
[13] = tested on: patients having coronary angioplasty; details: cited from earlier work
[14] = tested on: 11,000 people of age 67 or over; details: follow up 6 years; cited from earlier work
rabbits = details: cited from earlier work
[15] = tested on: 39,910 male health professionals; details: at least 100 IU per day for at least 2 years vs no vitamin E; cited from earlier work
male monkeys = details: vs unsupplemented atherosclerotic-promoting diet; cited from earlier work
[16] = tested on: men (high risk patients with prior cardiac events); details: 50 mg/day, 1862 men, 6 y, vs placebo, cited from earlier work
chickens = details: cited from earlier work
heavy smokers = details: 800 IU daily, 10 heavy smokers, 3 weeks, cited from earlier work
[17] = 400 or 800 IU per day, median follow-up 510 days

CC1=C(/C=C/C(C)=C/C=C/C(C)=C/C=C/C=C(C)/C=C/C=C(C)/C=C/C2=C(C)CCCC2(C)C)C(C)(C)CCC1 [BC, β-carotene]
expression of the connexin gene (connexin gene): enhances
doses that can cause yellowing of skin and pigment deposits in the eye ([1]; reversible upon discontinuation): ≥ 100 mg/day

COC1=C(OC)C(=O)C(C/C=C(\C)CC/C=C(\C)CC/C=C(\C)CC/C=C(\C)CC/C=C(\C)CC/C=C(\C)CC/C=C(\C)CC/C=C(\C)CC/C=C(\C)CCC=C(C)C)=C(C)C1=O [Coenzyme Q10]
Cardiac muscle function [2]: useful in improving
doses with no known toxicity in humans ([1]; in vivo): up to 300 mg/d

CC(=O)N[C@@H](CS)C(=O)O [N-acetylcysteine]
intracellular levels of glutathione [3]: increase
doses that can cause trace metal deficiencies ([1]; in vivo): ≥ 1000 mg/day

CC(C)(Sc1cc(C(C)(C)C)c(O)c(C(C)(C)C)c1)Sc1cc(C(C)(C)C)c(O)c(C(C)(C)C)c1 [Probucol]
Restenosis [4]: probucol reduced
Restenosis ([4]; listed as probucol): effective in reducing

O=C1O[C@H]([C@@H](O)CO)C(O)=C1O [Vit. C, ascorbic acid]
Plasma homocysteine, arterial stiffness [5]: reduced

Cc1c(C)c2c(c(C)c1O)CC[C@@](C)(CCC[C@H](C)CCC[C@H](C)CCCC(C)C)O2 [Vitamin E (d-αT), d-alpha tocopherol]
C-reactive protein (and monocyte interleukin-6) [6]: lowered
LDL oxidation ([7]; listed as Vit. E (d-αT)): reduced
LDL oxidation ([7]; listed as α-tocopherol): decreased
Death, non-fatal MI ([8]; 400 or 800 IU, 2,002 patients, follow-up 510 d): reduced

CC(=O)Oc1c(C)c(C)c2c(c1C)CCC(C)(CCC[C@H](C)CCC[C@H](C)CCCC(C)C)O2 (stereo partly drawn) [Vitamin E(α-TA), alpha tocopheryl acetate]
FMD (endothelial-dependent flow-mediated dilation) [9]: improved

N[C@@H](CCC(=O)N[C@@H](CS)C(=O)NCC(=O)O)C(=O)O [glutathione]
plasma levels of glutathione [10]: failed to significantly increase

Cc1c(C)c2c(c(C)c1OC(=O)CCC(=O)O)CC[C@@](C)(CCC[C@H](C)CCC[C@H](C)CCCC(C)C)O2 [α-TS, α-tocopherol-succinate]
action of PGE2 on adenylate cyclase (adenylate cyclase): reduce
plasma levels of α-tocopherol and α-TS [11]: increased

O=C(O)CCCCC1CCSS1 (stereo not drawn) [α-lipoic acid]
intracellular levels of glutathione [3]: increase

Vitamin E
Death, stroke, non-fatal MI [12]: no effect
Death, stroke, non-fatal MI ([12]; listed as vitamin E): did not reduce
restenosis, % of patients ([13]; 1200 IU daily for 4 months, placebo 50%): 34.6%
Stenosis ([13]; 1200 IU, 100 patients, 4 months): reduced
C-reactive protein (and monocyte interleukin-6) [6]: reduced
reduction in mortality from CAD [14]: 47%
development of early aortic atherosclerotic lesions (rabbits): reduce
lower risk of CAD [15]: 37%
stenosis progression (male monkeys): decreased
increase in cardiovascular death [8, 17]: 18%
lower risk of non-fatal myocardial infarction than the placebo group [8, 17]: 77%
Death, CAD events [16]: no effect
Death, CAD events ([16]; listed as vitamin E): no significant difference
FMD (endothelial-dependent flow-mediated dilation) [9]: improved
development of early aortic atherosclerotic lesions (chickens): reduce
Oxidative stress (levels of oxidative stress markers) (heavy smokers): increases
Oxidative stress (levels of oxidative stress markers) (heavy smokers; listed as vitamin E): increased
doses used for short-term clinical studies without adverse effects ([1]; in vivo): up to 2,000 IU/d

vitamin A
expression of the connexin gene (connexin gene): does not produce such an effect
toxicity after prolonged consumption in adults ([1]; daily doses higher than twice the RDA): liver and skin toxicity
